Assay results taken from article PMC6001375, “CLERK is a novel receptor kinase required for sensing of root-active CLE peptides in Arabidopsis” (Development (Cambridge, England), 2018).

How the values were obtained:
[1] = test system: VISUAL-cultured wild-type cotyledons (sieve element-specific genes); assay: RNAseq transcriptomic response in the VISUAL trans-differentiation assay; assay type: cell-based, Arabidopsis thaliana; settings: for Number of responsive genes / Overlap of CLE26- and CLE45-responsive genes: 100 nM peptide, 2 h, q value<0.01
Description: In an attempt to isolate novel components of CLE peptide signaling in A. thaliana root protophloem development, we embarked on a combinatorial approach of transcriptomic analysis and forward genetics. Experimental investigation of developing protophloem sieve elements is inherently difficult, because they represent only 40-50 cells inside the vascular cylinder of the root meristem, and some of our genes of interest are expressed only in a subset of these. Protophloem-specific transcriptomic responses are thus strongly diluted when root tips are assayed, and attempts to identify, e.g. protophloem-specific CLE45-responsive genes have so far been unsuccessful ([Depuydt et al., 2013]). However, in a novel trans-differentiation assay [vascular cell induction culture system using Arabidopsis leaves (VISUAL)] ([Kondo et al., 2016]), in which cotyledon or leaf mesophyll cells are re-programmed to differentiate into a ∼50:50 mix of xylem vessels and sieve elements, sieve element-specific genes can be monitored in unprecedented abundance. Although these trans-differentiated sieve elements are not root protophloem, they do represent a native cell type in which sieve element regulators can be investigated successfully ([Breda et al., 2017]; [Kondo et al., 2016]). Moreover, a transcriptomic time series identified BAM3 as a central node in the early module of the trans-differentiation process ([Kondo et al., 2016]). Thus, we concluded that VISUAL could be employed to identify CLE26- and CLE45-responsive sieve element-specific genes. To achieve this, we VISUAL-cultured wild-type cotyledons and monitored BAM3 expression in a parallel cultured transgenic line that carried a BAM3::GUS reporter gene. Strong comprehensive BAM3 expression was observed after 48 h. At this time point, the wild-type sample was split in replicates and treated with control, 100 nM CLE26 or 100 nM CLE45 for 2 h. Total RNA was isolated immediately after from these samples, and cDNA was prepared for high-throughput sequencing.
Vascular tissue trans-differentiation was induced in cotyledons over 2 days as described previously ([Kondo et al., 2016]). Samples were then treated with 100 nM of CLE26 or CLE45 peptide for 2 h. Total RNA of two biological replicates was then extracted from 100 mg of fresh material, using RNeasy Plant mini kits (Qiagen). Truseq Stranded mRNA kits (Illumina) were used to prepare cDNA libraries, which were sequenced on an Illumina Hiseq 2500 instrument. Read counts and differential expression were determined with Kallisto ([Bray et al., 2016]) and Sleuth ([Pimentel et al., 2017]) software, using the TAIR10 reference transcriptome. The raw data have been deposited in the NCBI Sequence Read Archive (www.ncbi.nlm.nih.gov/sra/) under accession SRP126390.

[2] = test system: BAM3 ectodomain with CLERK/At5g63710 ectodomains; assay: Analytical size-exclusion chromatography, BAM3 + CLERK/At5g63710 ectodomains; assay type: binding, Arabidopsis thaliana; settings: 50 µM peptide
Protocol: Isolation of recombinant proteins and analytical gel filtrations were carried out as described previously ([Hazak et al., 2017]) with small adjustments. The coding sequences for BAM1-ECD (amino acids 20-637), BAM3-ECD (30-651), PXY-ECD (30-647), NIK1-ECD (32-248), NIK2-ECD (33-248), NIK3-ECD (26-238), CLERK-ECD (28-236) and At5G63710-ECD (51-224) were amplified from Arabidopsis thaliana cDNA using PfuX7 polymerase. All ECD-coding sequences were then cloned into a modified pFAST-BAC1 vector (Geneva Biotech) by GIBSON cloning, resulting in the addition of the azurocidin signal peptide sequence to the 5′-end, and of a 2×-STREP-9×HIS tag to the 3′-end of the ECD sequences. These plasmids, after being confirmed by sequencing, were transformed into Escherichia coli DH10MultiBac (Geneva Biotech) followed by the extraction of the resulting bacmids. Transfection of the bacmids into Spodoptera frugiperda Sf9 cells with Profectin (AB Vector) was carried out to produce and amplify the respective virus. Recombinant secreted expression of the proteins was carried out by addition of virus to Trichoplusia ni Tnao38 cells to reach a viral multiplicity of 1 and incubation of the cells for 3 days. […] Concentrations of the pure proteins were assessed by measuring their absorbance at 280 nm (NanoDrop Lite; Thermo Scientific) and subsequent correction with their respective extinction coefficient. […]

| Peptide-induced binding of CLERK and BAM3 ectodomains ([2]; gel filtration, 20 mM citrate (pH 5.0), 150 mM NaCl) | Sequence | Regulation of SARK and NIK2 ([1]; 100 nM CLE26, 2 h) | Regulation of CLERK (At2g23950) ([1]; 100 nM CLE26, 2 h, top CLE26-responsive gene) | Number of responsive genes [1] [genes] | Overlap of CLE26- and CLE45-responsive genes [1] [genes] | Elution of BAM3 ectodomain with CLERK/At5g63710 ectodomains ([2]; Fig. S3A, pH 5.0) |
| --- | --- | --- | --- | --- | --- | --- |
|  | RKVPRGPDPIHN [CLE26] | downregulated | downregulated | 167 | 36 |  |
| did not observe CLE45-induced binding | RRVRRGSDPIHN [CLE45] |  |  | 97 | 36 | elute as monomers |
